From publication PMC6309430 (Journal of pharmaceutical sciences, 2017)
Like-named read-outs stand apart in the source and are kept apart here.

Columns and labels:
[1] = biological target: T1, P-glycoprotein (Pgp; Abcb1a, MDR3) (Mus musculus, UniProt P21447); test: intrinsic protein; type: binding
[2] = biological target: T1, P-glycoprotein (Pgp; Abcb1a, MDR3); test: intrinsic protein; type: binding; remark: listed apart in the source

T1 sequence (P21447 whole entry): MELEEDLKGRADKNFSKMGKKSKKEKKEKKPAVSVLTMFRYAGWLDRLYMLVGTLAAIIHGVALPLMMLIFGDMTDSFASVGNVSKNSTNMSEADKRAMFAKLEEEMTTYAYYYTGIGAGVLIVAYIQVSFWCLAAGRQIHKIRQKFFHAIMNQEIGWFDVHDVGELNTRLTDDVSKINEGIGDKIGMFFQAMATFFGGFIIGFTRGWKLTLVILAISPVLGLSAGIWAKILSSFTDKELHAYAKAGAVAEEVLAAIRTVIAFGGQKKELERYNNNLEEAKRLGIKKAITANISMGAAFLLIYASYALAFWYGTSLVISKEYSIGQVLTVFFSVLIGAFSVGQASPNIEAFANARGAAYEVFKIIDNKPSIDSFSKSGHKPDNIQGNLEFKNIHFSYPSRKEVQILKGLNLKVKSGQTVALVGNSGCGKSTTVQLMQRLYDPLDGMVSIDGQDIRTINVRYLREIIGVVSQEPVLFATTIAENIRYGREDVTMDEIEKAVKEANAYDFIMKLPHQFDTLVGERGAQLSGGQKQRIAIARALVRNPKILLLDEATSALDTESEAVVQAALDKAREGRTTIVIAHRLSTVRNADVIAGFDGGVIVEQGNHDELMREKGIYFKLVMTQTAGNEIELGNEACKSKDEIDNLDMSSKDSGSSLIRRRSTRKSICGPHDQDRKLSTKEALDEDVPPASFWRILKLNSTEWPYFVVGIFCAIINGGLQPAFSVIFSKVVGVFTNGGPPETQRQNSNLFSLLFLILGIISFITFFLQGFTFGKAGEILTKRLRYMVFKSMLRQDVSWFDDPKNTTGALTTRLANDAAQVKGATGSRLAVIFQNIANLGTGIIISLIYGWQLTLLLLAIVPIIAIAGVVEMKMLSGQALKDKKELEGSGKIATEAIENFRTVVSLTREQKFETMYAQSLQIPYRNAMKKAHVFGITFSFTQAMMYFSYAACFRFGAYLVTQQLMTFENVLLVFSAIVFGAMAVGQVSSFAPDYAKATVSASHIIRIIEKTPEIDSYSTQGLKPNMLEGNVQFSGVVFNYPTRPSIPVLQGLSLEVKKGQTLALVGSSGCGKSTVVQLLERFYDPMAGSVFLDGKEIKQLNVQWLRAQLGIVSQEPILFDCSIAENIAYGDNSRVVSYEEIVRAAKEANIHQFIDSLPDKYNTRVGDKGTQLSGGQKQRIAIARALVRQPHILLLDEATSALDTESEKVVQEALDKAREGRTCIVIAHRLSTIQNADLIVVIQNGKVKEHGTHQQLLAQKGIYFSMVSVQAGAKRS

Kd [1] | Kd [2] | SMILES
115 ± 10 µM |  | CN1CCC[C@@H]1Cc1c[nH]c2ccc(CCS(=O)(=O)c3ccccc3)cc12 [ETT, eletriptan]
 | 92.6 ± 25 µM | CNS(=O)(=O)Cc1ccc2[nH]cc(CCN(C)C)c2c1 [STT, sumatriptan]
